# Source: patent US10513529B2, “1,2,4-triazolo-[3,4-b]-1,3,4-thiadiazole derivatives” (GALENICA S.A., priority 2016, dated 2019)
# Values joined by “and” are separate entries in the source; they are usually repeats but may differ in a detail not shown here. Equal entries are not always repeated.
# Key:
# [1] = tested on: T-47D human breast cancer cell line; assay: MTT cytostatic-cytotoxic activity, T-47D; type: cell-based; conditions: 48 h treatment; for IC50: kills 50% of the cells
# C57BI/6 mice = assay: in vivo; conditions: i.p., acute toxicity
# Procedure: The acute toxicity of the compounds was assessed from lethality by testing different concentrations, starting at 100mg/kg. […] For intraperitoneal (i.p.) treatment, stock solutions of the tested compounds were prepared immediately before use. They were suspended in corn oil in the desired concentration following initial dissolution in 10% dimethylsulfoxide (DMSO). C57BI/6 male and female were used for toxicity studies. Mice were kept under conditions of constant temperature and humidity in sterile cages with water and food.
# [2] = tested on: MCF-7 human breast cancer cell line; assay: MTT cytostatic-cytotoxic activity, MCF-7; type: cell-based; conditions: for IC50: kills 50% of the cells
# [3] = tested on: SKOV-3 human ovarian cancer cell line; assay: MTT cytostatic-cytotoxic activity, SKOV-3; type: cell-based; conditions: for IC50: kills 50% of the cells
# Procedure: (§1) SKOV-3 (SKOV-3) (ATCC HTB 77) and OVCAR-3 (ATCC® HTB-161™)
# (§2) Human ovarian adenocarcinoma cells, which are grown easily in monolayer culture with epithelial-like morphology. SKOV-3 are resistant to tumor necrosis factor (TNF) and to other cytotoxic drugs such as cisplatin, and adriamycin, while OVCAR-3 are resistant to adriamycin, cisplatin and melphalan. These cell lines express androgens, estrogens and progesterone receptors. When SKOV-3 or OVCAR-3 cells are subcutaneously implanted in nude mice, SCID mice, a moderately differentiated tumor develops, and the resulting model resembles primary ovarian adenocarcinoma in humans.
# (§3) All cancer cell lines are stored in a liquid nitrogen tank in 2.5 ml cryovials (Corning-Costar, Cambridge, Mass.). DMSO (dimethylsulfoxide) act as a cryoprotectant and is added to prevent the formation of ice crystals which may lyse the cells. The Cells were grown as monolayer cultures in T-75 flasks (Corning-Costar, Cambridge, Mass.) and maintained at 37° C. in 5% CO2 incubator & 100% relative humidity. The cultures medium used are McCoy's 5a Medium, supplemented with 10% fetal bovine serum (FBS, Gibco) and 1% antibiotics (100 IU/ml penicillin/100 µg/ml streptomycin), sterilized by filtration (Corning-Costar filter, diameter 0.2 μm, RPMI-1640 and 50% RPMI-1640 (Catalog No 30-2001) plus 50% Mammary Epithelial Growth Medium (MEGM), supplemented with 10% fetal bovine serum (FBS, Gibco) and 1% antibiotics (100 IU/ml penicillin/100 μg/ml streptomycin). The passage is performed every 3-4 to days as follows: Cells are washed with sterile PBS (Phosphate buffered saline): 8 g/l NaCl, 0,2 g/l KCl, 1,15 g/l Na2HPO4καl 0,2 g/l KH2PO4. pH:7,4), add 2-3 ml 0.05% trypsin (Gibco 1:250) and 0.02% EDTA to cover the monolayer and incubate the flask at 3TC for 5-10 minutes. Trypsin-EDTA, is used mainly to detach the cells from the flask and prepare a single cell suspension. Finally, the number of cells can be determined by direct counting using a Neubauer chamber and cell viability is determined by staining the cells with trypan blue.
# (§4) In the experimental study the in vitro effect of the compound type (I) was evaluated against ovarian cancer cell lines UWB1.289, UWB1.289+BRCA1 Kai SKOV-3.The cells were plated in 96-well plate (MTP) at a density of 1×10^4cells/m1 per well and maintained for 72 h at 3TC in a 5% CO2 incubator and grown as monolayers. The selection of the initial number of cells was made according to the rate of proliferation of the cell line, in order the cells throughout the experiment are in an exponential (log) growth phase. After 24 hours, cells were treated with 1-100 μmol/l of the tested compounds for 48 h. Experiments were carried out using triplicate wells. The viability of cultured cells was estimated by an (3-(4,5-imethylthiazol-2-yl)-2,5-diphenyltetrazolium bromide (MTT) metabolic assay as described previously (Finlay G J, Wilson W R and Baguley B C: Comparison of in vitro activity of cytotoxic drugs towards human carcinoma and leukaemia cell lines. Eur J Cancer Clin Oncol 22: 655-662, 1986; Alley M C, Scudiero D A, Monks A, Hursey M L, Czerwinski M J, Fine D L, et al. Feasibility of drug screening with panels of human tumor cell lines using a microculture tetrazolium assay. Cancer Res 1988; 48:589-601). MTT (Sigma, St Louis, Mo., USA) was dissolved in PBS in a concentration of 5 mg/ml, filter sterilized, and stored at 4° C. MTT (50 μl of stock solution) was added to each culture and incubated for 3 h at 3TC to allow metabolization. Formazan crystals were solubilized by DMSO (100 μl). Absorbance of the converted dye was measured at a wavelength of 540nm on ELISA reader (BioTek, Winooski, Vt., USA).
# (§5) GI50: The mean concentration that causes 50% inhibition of cell growth (Growth Inhibition 50%). The calculation of the value is based on the formula: (Tt72x)−(Ct24)/(Ct72)-(Ct24)×100=50
# (§6) TGI: The mean concentration that causes 100% inhibition of cell growth (Total Growth Inhibition). […]
# [4] = tested on: OVCAR-3 human ovarian cancer cell line; assay: MTT cytostatic-cytotoxic activity, OVCAR-3; type: cell-based; conditions: OVCAR-3, 48 h treatment; for IC50: kills 50% of the cells
# Procedure: as §1, §2, §3, §4, §5, §6
# [5] = tested on: UWB1.289 human ovarian cancer cell line (mutant BRCA1); assay: MTT cytostatic-cytotoxic activity, UWB1.289; type: cell-based; conditions: for IC50: kills 50% of the cells
# Procedure: Also, UWB1.289 cells have mutated the p53 tumor suppressor gene and positive Wilms' tumor protein (WT) expression, have no functional BRCA1 gene and are positive for the expression of cytokeratin 7 (CK-7), calretinin and Wilms' tumor protein (WT). Finally they are sensitive to ionizing radiation.
# as §3, §4, §5
# (§7) TGI: The mean concentration that causes 100% inhibition of cell growth (Total Growth Inhibition). The value is calculated according to the formula: (Tt72x)−(Ct24)/(Ct72)−(Ct24)×100=0
# (§8) IC50: The mean concentration that kills 50% of the cells (Inhibition Concentration 50%). The value is calculated according to the formula: (Tt72x)−(Ct24)/(Ct24)×100=[…]
# [6] = tested on: PC-3 human hormone-resistant prostate cancer cell line; assay: MTT cytostatic-cytotoxic activity, PC-3; type: cell-based; conditions: PC-3, 48 h treatment; for IC50: kills 50% of the cells
# [7] = tested on: A-549 human lung carcinoma cell line; assay: MTT cytostatic-cytotoxic activity, A-549; type: cell-based; conditions: for IC50: kills 50% of the cells
# [8] = tested on: MOLT-4 human acute T-leukemia cell line; assay: MTT cytostatic-cytotoxic activity, MOLT-4; type: cell-based; conditions: MOLT-4, 48 h treatment; for IC50: kills 50% of the cells
# [9] = tested on: UWB1.289 + BRCA1 human ovarian cancer cell line; assay: MTT cytostatic-cytotoxic activity, UWB1.289+BRCA1; type: cell-based; conditions: for IC50: kills 50% of the cells
# Procedure: Human ovarian adenocarcinoma cells, derived from UBWB1,289, in which the presence of the BRCA1 gene has been restored. […] They are not susceptible to ionizing radiation and radioimmune chemical agents (e.g., alkylating agents). Also, UWB1.289 cells have mutated the p53 tumor suppressor gene, and are positive for the expression of cytokeratin 7 (CK-7), calretinin and Wilms' tumor protein (WT).
# as §3, §4, §5, §7, §8
# [10] = Homo sapiens, SK-OV-3, SKOV-3, 48 h treatment
# [11] = Homo sapiens, A549, A-549, 48 h treatment
# [12] = Homo sapiens, UWB1289, UWB1.289+BRCA1, 48 h treatment
Compound,GI50 [1] [µM],TGI [1],IC50 [1] [µM],LD10 (C57BI/6 mice) [mg/kg],LD50 (C57BI/6 mice) [mg/kg],"GI50 ([2]; MCF-7, 48 h treatment) [µM]","TGI ([2]; MCF-7, 48 h treatment)","IC50 ([2]; MCF-7, 48 h treatment) [µM]","GI50 ([3]; SKOV-3, 48 h treatment) [µM]","TGI ([3]; SKOV-3, 48 h treatment) [µM]","IC50 ([3]; SKOV-3, 48 h treatment) [µM]",GI50 [4] [µM],TGI [4] [µM],IC50 [4] [µM],"GI50 ([5]; UWB1.289, 48 h treatment) [µM]","TGI ([5]; UWB1.289, 48 h treatment) [µM]",TGI [6] [µM],"TGI ([7]; A-549, 48 h treatment) [µM]",TGI [8] [µM],"TGI ([9]; UWB1.289+BRCA1, 48 h treatment) [µM]",further results
"COc1cc(Cc2nnc3sc(CC=Cc4ccccc4)nn23)c(S(=O)(=O)N(C)C)cc1OC [TS53, 3-[2-(N,N-dimethylsulfamoyl)-4,5-dimethoxybenzyl]-6-cinnamyl-1,2,4-triazolo[3,4-b]-1,3,4-thiazole]",8,37 µM,> 100,>500,375,15,45 µM,> 100,8,16,32,5,12,25,12,56,31,24,21,28,"IC50 ([5]; UWB1.289, 48 h treatment): > 100 µM; GI50 [6]: 12 µM; IC50 [6]: 85 µM; GI50 ([7]; A-549, 48 h treatment): 9 µM; IC50 ([7]; A-549, 48 h treatment): 58 µM; GI50 [8]: 4 µM; IC50 [8]: 36 µM; GI50 ([9]; UWB1.289+BRCA1, 48 h treatment): 12 µM; IC50 ([9]; UWB1.289+BRCA1, 48 h treatment): 42 µM"
"COc1cc(Cc2nnc3sc(-c4cccc(Cl)c4)nn23)c(S(=O)(=O)N(C)C)cc1OC [TS22, 3-[2-(N,N-dimethylsulfamoyl)-4,5-dimethoxybenzyl]-6-(3-chlorophenyl)-1,2,4-triazolo[3,4-b]-1,3,4-thiazole]",60,97 µM and 100 µM,,,,,90 µM and >100 µM,,,100,,,>100,,,>100,>100,95,>100,>100,"GI50 ([1]; Homo sapiens, T47D, 48 h): 48 µM; IC50 ([1]; Homo sapiens, T47D): > 100 µM; IC50 ([2]; Homo sapiens, MCF7, MCF-7, 48 h treatment): > 100 µM; GI50 [3, 10]: 60 µM; IC50 [3, 10]: > 100 µM; GI50 ([4]; Homo sapiens): 90 µM; IC50 ([4]; Homo sapiens): > 100 µM; melting point: 237 to 239 °C; IC50 ([5]; Homo sapiens, UWB1289, UWB1.289, 48 h treatment): > 100 µM; GI50 ([6]; Homo sapiens): > 100 µM; IC50 ([6]; Homo sapiens): > 100 µM; GI50 [7, 11]: 45 µM; IC50 [7, 11]: > 100 µM; GI50 ([8]; Homo sapiens): 72 µM; IC50 ([8]; Homo sapiens): > 100 µM; GI50 [9, 12]: 16 µM; IC50 [9, 12]: > 100 µM"
COc1cc(Cc2nnc3sc(-c4ccccn4)nn23)c(S(=O)(=O)N(C)C)cc1OC [TS66],> 100,>100 µM,> 100,>500,>500,> 100,>100 µM,> 100,20,>100,> 100,24,>100,> 100,> 100,>100,>100,>100,>100,>100,"IC50 ([5]; UWB1.289, 48 h treatment): > 100 µM; GI50 [6]: > 100 µM; IC50 [6]: > 100 µM; GI50 ([7]; A-549, 48 h treatment): > 100 µM; IC50 ([7]; A-549, 48 h treatment): > 100 µM; GI50 [8]: 85 µM; IC50 [8]: > 100 µM; GI50 ([9]; UWB1.289+BRCA1, 48 h treatment): > 100 µM; IC50 ([9]; UWB1.289+BRCA1, 48 h treatment): > 100 µM"
